The text below walks through data of patent US20240316059A1, “PEPTIDE DRUG CONJUGATES” (Oncopeptides AB, priority 2021, published 2024).

Read-outs that look alike come from different tables or passages of the source.

Data set [1] can be described thus: In vitro cytotoxicity, BJ fibroblasts (normal cells). It counts as cell-based. The settings on record: human, CellTiter-Glo 2.0. As to the method: (§1) All cells were cultivated in RPMI medium 1640 (IX). All media was supplemented with 10 μg/μl penicillin/streptomycin, 10% heat inactivated FBS, 0.1 mM Sodium Pyruvate, 1×MEM NEAA (ThermoFisher) and 1 mM HEPES. The DERL-2 cells had higher FBS (20%) and 40 ng/mL IL-2 was added. hPBMCs were thawed and allowed to acclimatise overnight and then stimulated with 10 μg/mL PHA-M and 40 ng/mL IL-2 for 4 hours before being exposed to test compounds. All cells, except for hPBMCs, were grown to reach log phase before being exposed to the test compounds.
(§2) Test compounds were dissolved in 100% DMSO and added to a 384 assay plate. Additional DMSO was added to maintain the same final DMSO concentration (0.2%) in all wells. 25 μL cell suspension with a concentration of 100000 cells/mL was added to each well. The cells were cultured in a CO2 incubator at 37° C. for 72 h. Plates were equilibrated to room temperature for 30 minutes before adding 20 μL CellTiter-Glo® 2.0 (Promega) reagent to all wells. The plate was then allowed to stabilize for 20 minutes before recording the luminescence (Em filter 700 nm) in an Envision plate reader.
On the technique in general: In ATP-based viability assays light output follows the ATP content of the culture.

Data set [2] concerns SC-1. Kind of data set: In vitro cytotoxicity, SC-1 (B cell Lymphoma). The settings on record: Homo sapiens, read-out: Cytotoxicity IC50, SC-1. In kind it is cell-based. As to the method:
as §1, §2

In data set [3] the test system is EJM. The data set can be described thus: In vitro cytotoxicity, EJM (Multiple Myeloma). Particulars: Homo sapiens, 72 h. It counts as cell-based. As to the method: as §1, §2
Data set [4] deals with OPM-2. Kind of data set: In vitro cytotoxicity, OPM-2 (Multiple Myeloma). It counts as cell-based. The settings on record: Homo sapiens, read-out: Cytotoxicity IC50, OPM-2. The method, then:
as §1, §2

Data set [5] relates to AMO-1. Kind of data set: In vitro cytotoxicity, AMO-1 (Multiple Myeloma). It counts as cell-based. The settings on record: Homo sapiens, read-out: Cytotoxicity IC50, AMO-1. The method, then: as §1, §2
For data set [6], the system named is U266. Kind of data set: In vitro cytotoxicity, U266 (Multiple Myeloma). It counts as cell-based. The settings on record: Homo sapiens, read-out: Cytotoxicity IC50, U266. As to the method: as §1, §2
The subject of data set [7] is RPMI-8226. Kind of data set: In vitro cytotoxicity, RPMI-8226 (Multiple Myeloma, resistant). In kind it is cell-based. Particulars: Homo sapiens, read-out: Cytotoxicity IC50, RPMI-8226. The method, then:
as §1, §2

Data set [8] concerns MM.1S cells. The data set can be described thus: In vitro cytotoxic potency in MM.1S cell viability assay (CellTiter-Glo). The settings on record: Homo sapiens, MM1.S, 72 h. In kind it is cell-based, human. As to the method:
Methods: MM.1S Cells were cultivated in RPMI medium 1640 (IX) supplemented with 10 μg/μL penicillin/streptomycin, 10% heat inactivated FBS, 0.1 mM Sodium Pyruvate, 1×MEM NEAA (ThermoFisher) and 1 mM HEPES. Cells were grown to reach log phase before being exposed to the test compounds.
as §2, with “compounds (Example compounds 1 to 36, 38 to 41 and 45 to 48) and comparative compounds (bendamustine, busulfan, melphalan, chlorambucil and 4-hydroperoxy cyclophosphamide)” for “compounds”, “(emission” for “(Em”
as §1, §2

In data set [9] the test system is KMS-12-BM. The data set can be described thus: In vitro cytotoxicity, KMS-12-BM (Multiple Myeloma). In kind it is cell-based. Particulars: Homo sapiens, 72 h. The method, then:
as §1, §2

Data set [10] has as its system MM.1S cells. The data set can be described thus: Cellular retention/efflux: intracellular and extracellular concentrations by LC-MS/MS. It counts as in vitro ADME, human. The settings on record: metabolites measured after treatment with the parent Example compound. The method, then: Methods: MMA1S cells at 2×10^6 cells/mL were seeded at 250 μL per well in a 96-well plate. Cells were incubated in the presence of a test compound for 5, 15, and 60 min before pelleting cells by centrifugation at +4° C. for 5 min. Cell media was immediately harvested to a second plate and stored at −80° C. until further analysis. Pelleted cells were washed once with ice cold PBS before storage at −80° C. until further analysis.
Cells were lysed and protein in the media were precipitated using acetonitrile dimethylformamide, 9:1 containing internal standard. Samples were centrifuged and the supernatant was analyzed with LC-MS/MS (ACQUITY UPLC-Xevo TQ-S micro) to determine compound concentration.
Example compound 1, bendamustine and melphalan were used as test compounds.
Method: Method described in Biological example 3.
Example compounds 1, 2, 3, 4, 6, 7 and 10 were investigated. Intracellular metabolites are formed from all compounds tested. The compound used for cell treatment was metabolised to the ester-hydrolysed compound (here called Metabolite A) and to the amide-hydrolysed compound (called Metabolite B). The example compound structures and the structures of the two metabolites for the respective compounds were as shown in Table 4. The Metabolites B formed under the conditions tested were compounds with structure as Examples 17 and 18: […]

Data set [11] concerns DNA prepared from MM.1S cells (nuclear HPRT and mitochondrial DNA). The data set can be described thus: Direct DNA damage, PCR amplification of treated DNA (HPRT and mtDNA primers). It counts as biochemical, human. Particulars: 0.25 μM compound, 30 minutes, 37° C., 1 μg DNA. The method, then: Method: DNA was prepared from MM.1S cells by QIAGEN genomic tip 20/G according to protocol described in Furda et al., Methods Mol Biol, 2012. 1 μg of DNA was treated with 0.25 μM compound for 30 minutes at 37° C. DMSO was used as control treatment. 20 ng of the treated DNA was PCR amplified using Phusion Hot Start II High Fidelity PCR Master Mix (Thermo Scientific) and primers directed to either HPRT or primers directed to mitochondrial DNA (mtDNA) was used, generating 10.4 or 8.9 kb fragments, respectively. The PCR reactions were separated on a 1% agarose gel and visualized by ChemiDoc™ MP Imaging System (BioRad). Example compounds 1, 2 and 38 were investigated, as were compounds 18 and 20, which are metabolites of compound 1. They were compared with bendamustine, melphalan and DMSO control. The results for compounds 1, 2, 18 and 20 with the HPRT primers are shown in FIG. 4(A); the results with the mtDNA primers are shown in FIG. 4(B).

Data set [12] concerns DOHH-2. Kind of data set: In vitro cytotoxicity, DOHH-2 (B Cell Lymphoma). In kind it is cell-based. The settings on record: Homo sapiens, DOHH-2; 72 h, CellTiter-Glo 2.0; read-out: Cytotoxicity IC50, DOHH-2. The method, then: as §1, §2
The subject of data set [13] is U937. Kind of data set: In vitro cytotoxicity, U937 (Histiocytic Lymphoma). It counts as cell-based. Particulars: Homo sapiens, U-937; 72 h, CellTiter-Glo 2.0; read-out: Cytotoxicity IC50, U937. As to the method: as §1, §2
For data set [14], the system named is SK-MM-1. The data set can be described thus: In vitro cytotoxicity, SK-MM-1 (Plasma Cell Leukemia). In kind it is cell-based. The settings on record: Homo sapiens; 72 h, CellTiter-Glo 2.0; read-out: Cytotoxicity IC50, SK-MM-1. As to the method:
as §1, §2

Data set [15] relates to SU-DHL-8. Kind of data set: In vitro cytotoxicity, SU-DHL-8 (B-cell non-Hodgkin Lymphoma). It counts as cell-based. The settings on record: Homo sapiens, SU-DHL-8; 72 h, CellTiter-Glo 2.0; read-out: Cytotoxicity IC50, SU-DHL-8. As to the method: as §1, §2
In data set [16] the test system is HG-3. The data set can be described thus: In vitro cytotoxicity, HG-3 (Chronic Lymphocytic Leukemia). It counts as cell-based. Particulars: Homo sapiens, HG-3; 72 h, CellTiter-Glo 2.0; read-out: Cytotoxicity IC50, HG-3. As to the method: as §1, §2
In data set [17] the test system is Toledo. Kind of data set: In vitro cytotoxicity, Toledo (Diffuse Large B Cell Lymphoma). It counts as cell-based. The settings on record: Homo sapiens, 72 h, CellTiter-Glo 2.0, read-out: Cytotoxicity IC50, Toledo. The method, then:
as §1, §2

Where [18] appears, read: read-out: Cytotoxicity IC50, MM.1S.
The mark [19] stands for this setting: RPMI-8226, 72 h, CellTiter-Glo 2.0.

For `CCOC(=O)[C@H](CC(C)C)NC(=O)[C@@H](N)CCc1nc2cc(N(CCCl)CCCl)ccc2n1-c1ccccc1` [Example 13, Ethyl (2S)-2-[[(2S)-2-amino-4-[5-[bis(2-chloroethyl)amino]-1-phenyl-benzimidazol-2-yl]butanoyl]amino]-4-methyl-pentanoate], in data set [1], the IC50 – broadly, the concentration that gives 50% inhibition – at 72 h is more than 2000 nM. The IC50 in data set [2] (SC-1, 72 h) was 134 nM; in [3] (read-out: Cytotoxicity IC50, EJM) it was 356 nM; in data set [4] (OPM-2, 72 h), 2110 nM; in data set [5] (AMO1, 72 h), 965 nM; in data set [6] (U-266, 72 h), 400 nM; in [7] (RPMI-8226, 72 h), 1720 nM. The IC50 in data set [8] (setting [18]) is 49 nM; in data set [8] (read-out: MM.1S IC50), 49 nM; in data set [9] (read-out: Cytotoxicity IC50, KMS-12-BM), 137 nM.

For the compound `Cn1c(CC[C@H](N)C(=O)O)nc2cc(N(CCCl)CCCl)ccc21` [Example 18, (S)-2-amino-4-(5-(bis(2-chloroethyl)amino)-1-methyl-1H-benzo[d]imidazol-2-yl)butanoic acid], the “Intracellular concentration (in words)” value in [10] (MM.1S cells incubated with test compound 5, 15, 60 min) is “rapidly formed inside the cells”. The “Extracellular concentration (in words)” value in [10] (media of MM.1S cells incubated with test compound 5, 15, 60 min) was “low levels of it are found in the media outside the cells”. Besides, in data set [8] (read-out: MM.1S IC50), the IC50 came to 20200 nM. Also, in [11], the “DNA damage on nuclear and mitochondrial DNA (PCR band)” value (“DNA damage” below) was “effectively damaged both nuclear and mitochondrial DNA”.

On to `CC(C)C[C@H](NC(=O)[C@@H](N)CCc1nc2cc(N(CCCl)CCCl)ccc2n1C)C(=O)O` [Example 20, (2S)-2-[[(2S)-2-amino-4-[5-[bis(2-chloroethyl)amino]-1-methyl-benzimidazol-2-yl]butanoyl]amino]-4-methyl-pentanoic acid], for which, in data set [8] (read-out: MM.1S IC50), the IC50 is 5750 nM. Moreover, in [11], the “DNA damage” value is “DNA damaging effect but to a lesser degree compared to Example compounds 1, 2 and 18”.

Regarding `CC(C)C[C@H](NC(=O)[C@@H](N)CCc1nc2cc(N(CCCl)CCCl)ccc2n1C)C(=O)N(C)C` [Example 30, (2S)-2-[[(2S)-2-Amino-4-[5-[bis(2-chloroethyl)amino]-1-methyl-benzimidazol-2-yl]butanoyl]amino]-N,N,4-trimethyl-pentanamide], in data set [1], the IC50 at 72 h was more than 2000 nM. Also, the IC50 in data set [2] (SC-1, 72 h, CellTiter-Glo 2.0) was 53.7 nM; in data set [3] (CellTiter-Glo 2.0, read-out: Cytotoxicity IC50, EJM) it was 173 nM; in data set [4] (OPM-2, 72 h, CellTiter-Glo 2.0), 322 nM; in [5] (AMO1, 72 h, CellTiter-Glo 2.0) it was 653 nM; in data set [6] (U-266, 72 h, CellTiter-Glo 2.0), 131 nM; in [7] (setting [19]), 492 nM. Besides, the IC50 in data set [8] (setting [18]) amounted to 39.7 nM; in data set [8] (read-out: MM.1S IC50), 39.7 nM; in data set [9] (CellTiter-Glo 2.0, read-out: Cytotoxicity IC50, KMS-12-BM), 45 nM.

On to `CCOC(=O)[C@@H](N)CCc1nc2cc(N(CCCl)CCCl)ccc2n1C.Cl.Cl` [Example 38, Ethyl (2S)-2-amino-4-[5-[bis(2-chloroethyl)amino]-1-methyl-benzimidazol-2-yl]butanoate], for which the IC50 in data set [2] (SC-1, 72 h, CellTiter-Glo 2.0) came to 77.2 nM; in data set [12], 28.1 nM; in data set [13] it was 25.3 nM; in data set [14], 175 nM; in [15], 71.4 nM; in data set [16], 49.8 nM. The IC50 is 676 nM in data set [7] (setting [19]), 52 nM in data set [8] (setting [18]), 52 nM in data set [8] (read-out: MM.1S IC50) and 16.2 nM in data set [17]. Also, in data set [11], the “DNA damage” value was “effectively damaged both nuclear and mitochondrial DNA”.

Consider `CCOC(=O)[C@@H](CC(C)C)NC(=O)[C@H](N)CCc1nc2cc(N(CCCl)CCCl)ccc2n1C` [Example 47, Ethyl (2R)-2-[[(2R)-2-amino-4-[5-[bis(2-chloroethyl)amino]-1-methyl-benzimidazol-2-yl]butanoyl]amino]-4-methyl-pentanoate], for which the IC50 in data set [8] (read-out: MM.1S IC50) was found to be 1710 nM.

With `CCOC(=O)[C@H](CC(C)C)NC(=O)[C@@H](N)CCc1nc2cc(N(CCCl)CCCl)cnc2n1C` [Example 48, Ethyl (2S)-2-[[(2S)-2-amino-4-[6-[bis(2-chloroethyl)amino]-3-methyl-imidazo[4,5-b]pyridin-2-yl]butanoyl]amino]-4-methyl-pentanoate], the IC50 in data set [8] (read-out: MM.1S IC50) stood at 205 nM.
